These results are taken from article PMC8878468, “Image-Based Annotation of Chemogenomic Libraries for Phenotypic Screening” (Molecules, 2022).

Data set [1] deals with U2OS cells. The data set can be described thus: cells. As to conditions: Homo sapiens.
Data set [2] relates to HCT116-FUCCI cells. Further details: method as in per compound as in column reference of Table S3. The settings on record: literature annotation in Table S3; ref per compound as in Table S3; cited from earlier work.
For data set [3], the system named is HCT116-FUCCI cells. The experiment in a line: FUCCI cell cycle assay with nuclear gating. As to conditions: for IC50: Homo sapiens, average and SEM of two independent experiments. Format: cell-based, human. The protocol:
For generation of a stable cell line, including the florescent ubiquitination-base cell cycle indicator FUCCI, the plasmid-based transposon system Sleeping Beauty was used. Vector (pSBbi_Fucci) and the Transposase SB100X have been described previously. […] Two days after transfection, cells were selected over 10 days using puromycin (1 µg/mL) and cultivated afterwards for two more weeks in McCoys 5A plus L-Glutamine (Gibco) supplemented by 10% FBS (Gibco) and Penicillin/Streptomycin (Gibco).
Fluorescence and cellular shape were measured before and after compound treatment for 72 h every 12 h using the CQ1 high-content confocal microscope (Yokogawa). […]
Image analysis was performed using the CellPathfinder software (Yokogawa). Segmentation of cells was performed as described earlier. First, the cells are classified in Hoechst High Intensity Objects or Normal Intensity Objects (Supplementary Table S7). All normal gated cells are further classified in healthy, fragmented or pyknosed nuclei (Supplementary Table S7). […] Total cell count was normalized against total cell count of cells treated with 0.1% DMSO.

Data set [4] deals with U2OS cells. The data set can be described thus: Multiplex high-content protocol (nuclei gating, tubulin, mitochondrial mass, membrane permeability). The settings on record: U2OS. Format: cell-based, human. Here is the method: Using the CQ1 high-content confocal microscope (Yokogawa), cellular shape and fluorescence was measured before and 12 h as well as 24 h after compound treatment. All compounds were diluted in DMSO to a concentration of 10 mM.
The rather large spacing distance was used to create a robust readout, compensating potential plate variations and enabling automated screening without the use of autofocus. The overlap of the fluorescence emission spectra of the dyes was neglectable for all but the MitoTracker Red and Annexin V Alexa Fluor 680 (Supplementary Figure S9).
All images were analyzed using the CellPathfinder software (Yokogawa). Segmentation of cells was performed as described earlier. First, the cells are classified in Hoechst High Intensity Objects or Normal Intensity Objects (Supplementary Table S7). All normal gated cells are further classified in healthy, fragmented or pyknosed nuclei (Supplementary Table S7). The pyknosed cells are gated in mitotic or apoptotic cells using seven features for the cell body and five features for the cell nuclei according to their Annexin V staining intensity (Supplementary Table S7). All cells that were classified as including a healthy nucleus are further gated into three phenotypic classes. […] Growth rate was calculated against non-treated cells and cells treated with DMSO 0.1% [61].

Data set [5] has as its system U2OS cells. The settings on record: High-Via Extend protocol, cell line and unit inferred.
The test system of data set [6] is FGFR. The settings on record: cited from earlier work.
The conditions of data set [7]: source not stated; cited from earlier work.
Setting [8] is: read-out: IC 50 14 h, Table S2, 14 h.
Setting [9] is: read-out: IC 50 26 h, Table S2, 26 h.
[10] abbreviates: read-out: IC 50 42 h, Table S2, 42 h.
The mark [11] stands for this setting: read-out: IC 50 56 h, Table S2, 56 h.

Where two headings read alike, the source gives them in different places.

For `CC[C@@]1(O)C(=O)OCc2c1cc1n(c2=O)Cc2cc3ccccc3nc2-1` [camptothecin], the IC50 in data set [1] (14 h, read-out: IC 50 14 h) was found to be 2600 nM; in data set [1] (14 h, read-out: IC50, normalized healthy cell count), 4700 nM; in data set [1] (14 h, read-out: IC50, normalized healthy nuclear count), 6100 nM; in data set [1] (26 h, read-out: IC 50 26 h), 2300 nM; in data set [1] (28 h, read-out: IC50, normalized healthy cell count) it was 1800 nM; in data set [1] (28 h, read-out: IC50, normalized healthy nuclear count), 1700 nM. For the same compound, the IC50 was determined as 1500 nM in data set [1] (42 h, read-out: IC 50 42 h); 290 nM in data set [1] (42 h, read-out: IC50, normalized healthy cell count); 438 nM in data set [1] (42 h, read-out: IC50, normalized healthy nuclear count); 1100 nM in data set [1] (56 h, read-out: IC 50 56 h); 50.9 nM in data set [1] (56 h, read-out: IC50, normalized healthy cell count); 43.4 nM in data set [1] (56 h, read-out: IC50, normalized healthy nuclear count). In data set [2], the “known cell cycle effect” value is “mitotic arrest”. Also, in data set [3] (10 µM, up to 70 h), the “change of FUCCI nuclei population in comparison to DMSO” value is reported as “increase in green nuclei”. The “Hoechst High Intensity Objects (Hoechst intensity compared to normal nuclei)” value in data set [4] (1 µM) was “more than 50%”. Also, in data set [4] (10 µM, 24 h), the “healthy nuclei (healthy cells)” value is “less than 50%”. In data set [4] (10 µM, after 24 h, in one of two biological replicates), the “Hoechst High Intensity Objects” value was greater than 30%.

In the case of `CNC(=O)c1nn(C)c2c1C(C)(C)Cc1cnc(Nc3ccc(N4CCN(C)CC4)cc3)nc1-2` [milciclib], the IC50 in data set [1] (14 h, read-out: IC 50 14 h) was 2100 nM; in data set [1] (26 h, read-out: IC 50 26 h) it was 800 nM; in data set [1] (42 h, read-out: IC 50 42 h) it was 600 nM; in data set [1] (56 h, read-out: IC 50 56 h), 500 nM; in data set [3] (18h, read-out: IC50(18h), normalized healthy cell count) it was 5990 ± 260 nM; in data set [3] (32h, read-out: IC50(32h), normalized healthy cell count), 1990 ± 350 nM. Also, the IC50 in data set [3] (45h, read-out: IC50(45h), normalized healthy cell count) worked out at 850 ± 90 nM; in data set [3] (59h, read-out: IC50(59h), normalized healthy cell count) it was 570 ± 50 nM. In data set [2], the “known cell cycle effect” value is recorded as “G1 cell cy cle arrest”. Further, the “cell cycle population distribution of healthy gated nuclei” value in data set [3] (1 µM, after 18 h, versus DMSO) is reported as “higher population of ‘red’ nuclei”. Also, the “increase in mitochondrial mass in comparison to DMSO” value in data set [4] (10 µM, 24 h, healthy nuclei only) is given as “over 60%”.

On to `CCC(=O)N1CCN(c2ccc(-n3c(=O)ccc4cnc5ccc(-c6cnc7ccccc7c6)cc5c43)cc2C(F)(F)F)CC1` [torin], for which the IC50 was found to be 800 nM in data set [5] (setting [8]), 800 nM in data set [5] (setting [9]), 700 nM in data set [5] (setting [10]) and 700 nM in data set [5] (setting [11]).

`Cc1sc2c(c1C)C(c1ccc(Cl)cc1)=N[C@@H](CC(=O)OC(C)(C)C)c1nnc(C)n1-2` [JQ1]: the IC50 was found to be 9700 nM in data set [5] (setting [8]), 9000 nM in data set [5] (setting [9]), 13700 nM in data set [5] (setting [10]) and 200 nM in data set [5] (setting [11]).

`CCN(CC)CCCCNc1ncc2cc(-c3cc(OC)cc(OC)c3)c(NC(=O)NC(C)(C)C)nc2n1` [PD173074]: the cellular activity result in data set [6] was “less than 25 nM”. The logP in data set [7] is 4.7. In data set [4] (1 µM), the “Hoechst High Intensity Objects (Hoechst intensity compared to normal nuclei)” value is “more than 50%” and the “compound precipitation in assay” value was “precipitated”.

By logP is commonly meant a log measure of how a compound divides between an organic and an aqueous phase.
